# Molecular target: T1, human T-type channel alpha-1H (CaV 3.2) (Homo sapiens, UniProt O95180)
# T1 construct: expressed in transfected cells; host or cells: HEK 293
# Assay: Ca2+ Influx Assay (cell-based fluorescent, FDSS)
# Conditions: HEK 293 cells expressing human CaV 3.2
# Method: Inhibition of T-type calcium channel activity was determined by cell-based flu-orescent Ca^2+ influx assay, in which potassium ionophore was added to decrease resting membrane potential and extra-cellular high-K^+ stimulation was used to modulate the membrane potential of the cell. The changes in fluorescent signal were monitored by the cell imaging technology by Hamamatsu Photonics's Functional Drug Screening System (FDSS).
# HEK 293 cells expressing the human T-type channel alpha-1H (CaV 3.2) were maintained in DMEM supplemented with 10% heat-inactivated FBS, 100 units/ml Penicillin, 100 microg/ml Streptomycin, 150 microg/ml Zeocin, 300 microg/ml Geneticin. The cells were grown in a 5% CO2 humidified incubator at 37° C.
# • 1. Cells were harvested and seeded in a poly-D-lysine coated black-sided clear bottom 384-well plate at density of 10,000 cells/well at 24 hours prior to assay. • 2. Incubate at 37° C. in 5% CO2. Day Two: • 1. Wash each well with assay buffer (see below) and leave 20 RI using plate washer, ELx-405 Select CW (BIO-TEK). • 2. Add 20 μL of assay buffer containing 6 μM Fluo-4-AM (Molecular Probes) and 0.005% Pluronic F-127 to each well. • 3. Incubate the plate at 37° C. for 1 hour. • 4. Wash each well assay buffer (see below) and leave 20 μl using plate washer, ELx-405 Select CW (BIO-TEK). • 5. Add 10 μl of compound solution into each well by FDSS6000 and leave the plate for 4.5 min, and then add 10 μl of potassium ionophore solution. • 6. Add 20 μl of high-K^+ depolarizing solution (see below) and monitor the change of fluorescent signal.
# The IC50 values for compounds of the present invention were determined from 7-point dose-response studies. Curves were generated using the average of duplicate wells for each data point. Finally, the IC50 values are calculated with the best-fit dose curve determined by XLfit.
# T1 sequence (O95180 whole entry): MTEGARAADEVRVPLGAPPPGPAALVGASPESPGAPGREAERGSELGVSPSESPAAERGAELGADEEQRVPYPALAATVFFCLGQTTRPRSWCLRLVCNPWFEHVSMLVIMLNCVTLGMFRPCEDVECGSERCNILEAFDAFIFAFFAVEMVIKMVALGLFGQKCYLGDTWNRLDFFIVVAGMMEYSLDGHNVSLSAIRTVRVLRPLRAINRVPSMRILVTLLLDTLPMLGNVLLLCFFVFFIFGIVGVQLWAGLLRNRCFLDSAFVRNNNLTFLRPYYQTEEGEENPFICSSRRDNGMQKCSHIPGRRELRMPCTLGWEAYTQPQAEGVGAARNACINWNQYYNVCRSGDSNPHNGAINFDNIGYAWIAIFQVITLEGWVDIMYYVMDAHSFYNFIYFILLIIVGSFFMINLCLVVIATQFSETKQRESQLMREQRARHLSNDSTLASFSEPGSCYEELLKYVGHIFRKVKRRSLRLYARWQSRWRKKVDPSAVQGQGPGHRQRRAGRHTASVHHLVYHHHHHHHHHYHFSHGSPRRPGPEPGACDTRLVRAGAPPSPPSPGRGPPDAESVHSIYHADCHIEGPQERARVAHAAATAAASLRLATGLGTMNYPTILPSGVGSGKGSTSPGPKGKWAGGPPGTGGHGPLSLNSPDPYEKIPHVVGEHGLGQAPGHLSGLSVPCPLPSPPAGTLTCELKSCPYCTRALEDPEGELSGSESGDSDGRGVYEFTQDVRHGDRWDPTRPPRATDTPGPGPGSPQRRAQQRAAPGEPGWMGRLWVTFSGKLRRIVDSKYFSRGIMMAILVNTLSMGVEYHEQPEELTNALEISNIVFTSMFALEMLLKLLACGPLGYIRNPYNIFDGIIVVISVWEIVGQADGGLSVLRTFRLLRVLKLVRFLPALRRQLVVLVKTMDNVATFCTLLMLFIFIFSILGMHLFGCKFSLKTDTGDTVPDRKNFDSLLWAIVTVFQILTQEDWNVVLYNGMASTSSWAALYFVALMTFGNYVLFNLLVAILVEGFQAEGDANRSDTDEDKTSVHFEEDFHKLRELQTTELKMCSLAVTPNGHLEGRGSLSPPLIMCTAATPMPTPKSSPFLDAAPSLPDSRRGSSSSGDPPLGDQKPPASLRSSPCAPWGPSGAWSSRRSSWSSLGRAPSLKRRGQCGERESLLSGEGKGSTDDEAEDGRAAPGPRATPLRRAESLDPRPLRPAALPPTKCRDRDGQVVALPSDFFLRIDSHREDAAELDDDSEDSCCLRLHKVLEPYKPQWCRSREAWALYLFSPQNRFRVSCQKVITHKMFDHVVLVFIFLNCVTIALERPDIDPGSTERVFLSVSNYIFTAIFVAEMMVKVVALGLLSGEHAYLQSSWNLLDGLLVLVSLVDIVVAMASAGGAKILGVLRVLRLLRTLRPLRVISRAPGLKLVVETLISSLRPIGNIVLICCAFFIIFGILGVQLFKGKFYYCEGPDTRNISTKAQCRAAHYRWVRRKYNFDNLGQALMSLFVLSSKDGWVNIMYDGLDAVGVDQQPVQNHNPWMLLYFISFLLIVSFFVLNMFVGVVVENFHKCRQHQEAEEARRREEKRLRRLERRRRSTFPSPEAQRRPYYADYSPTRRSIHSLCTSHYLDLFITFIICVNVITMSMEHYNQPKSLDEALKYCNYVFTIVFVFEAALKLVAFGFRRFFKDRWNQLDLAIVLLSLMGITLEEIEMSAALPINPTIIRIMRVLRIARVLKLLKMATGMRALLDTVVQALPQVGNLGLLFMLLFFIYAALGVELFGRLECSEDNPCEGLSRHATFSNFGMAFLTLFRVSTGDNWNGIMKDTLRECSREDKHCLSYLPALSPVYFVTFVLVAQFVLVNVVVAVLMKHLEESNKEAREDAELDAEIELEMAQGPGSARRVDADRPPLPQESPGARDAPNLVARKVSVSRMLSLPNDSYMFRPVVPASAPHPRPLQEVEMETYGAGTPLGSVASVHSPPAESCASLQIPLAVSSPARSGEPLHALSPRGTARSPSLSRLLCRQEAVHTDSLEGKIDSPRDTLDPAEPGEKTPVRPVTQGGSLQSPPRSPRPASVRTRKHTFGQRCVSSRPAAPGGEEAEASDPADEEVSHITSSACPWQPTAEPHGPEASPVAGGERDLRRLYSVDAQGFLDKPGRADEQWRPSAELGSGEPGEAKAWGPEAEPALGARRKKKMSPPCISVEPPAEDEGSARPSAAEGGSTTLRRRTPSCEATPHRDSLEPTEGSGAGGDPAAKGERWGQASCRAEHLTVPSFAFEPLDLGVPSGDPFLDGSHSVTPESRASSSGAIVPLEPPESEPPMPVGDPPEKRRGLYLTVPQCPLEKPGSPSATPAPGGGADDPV
row,Structure (SMILES),IC50 [nM]
1,"C[C@@H](NC(=O)[C@H]1C[C@@H]1c1c[nH]c2ccccc12)c1ccc(OCC(F)(F)F)cn1 (relative stereo) [Example 133, (1S*,2S*)-2-(1H-indol-3-yl)-N-((R)-1-(5-(2,2,2-trifluoroethoxy)pyridin-2-yl)ethyl)cyclopropanecarboxamide]",≤ 300
2,"C[C@@H](NC(=O)[C@@H]1C[C@H]1c1c[nH]c2ccccc12)c1ccc(OCC(F)(F)F)cn1 (relative stereo) [Example 134, (1R*,2R*)-2-(1H-indol-3-yl)-N-((R)-1-(5-(2,2,2-trifluoroethoxy)pyridin-2-yl)ethyl)cyclopropanecarboxamide]",≤ 300
3,"C[C@@H](NC(=O)[C@H]1C[C@@H]1c1ccc2cc[nH]c2c1)c1ccc(OCC(F)(F)F)cn1 (relative stereo) [Example 203, (1S*,2S*)-2-(1H-indol-6-yl)-N-((R)-1-(5-(2,2,2-trifluoroethoxy)pyridin-2-yl)ethyl)cyclopropanecarboxamide]",≤ 300
4,"C[C@@H](NC(=O)[C@@H]1C[C@H]1c1ccc2cc[nH]c2c1)c1ccc(OCC(F)(F)F)cn1 (relative stereo) [Example 204, (1R*,2R*)-2-(1H-indol-6-yl)-N-((R)-1-(5-(2,2,2-trifluoroethoxy)pyridin-2-yl)ethyl)cyclopropanecarboxamide]",≤ 300
5,"C[C@@H](NC(=O)[C@@H]1C[C@H]1c1ccc2ccccc2n1)c1cnc(OCC(F)(F)F)cn1 (relative stereo) [Example 222, (1R*,2R*)-2-(quinolin-2-yl)-N-((R)-1-(5-(2,2,2-trifluoroethoxy)pyrazin-2-yl)ethyl)cyclopropanecarboxamide]",≤ 300
6,"C[C@@H](NC(=O)[C@H]1C[C@@H]1c1cc2ccccc2[nH]1)c1ccc(OCC(F)(F)F)nc1 (relative stereo) [Example 223, (1S*,2S*)-2-(1H-indol-2-yl)-N-((R)-1-(6-(2,2,2-trifluoroethoxy)pyridin-3-yl)ethyl)cyclopropanecarboxamide]",≤ 300
7,"C[C@@H](NC(=O)[C@@H]1C[C@H]1c1cc2ccccc2[nH]1)c1ccc(OCC(F)(F)F)nc1 (relative stereo) [Example 224, (1R*,2R*)-2-(1H-indol-2-yl)-N-((R)-1-(6-(2,2,2-trifluoroethoxy)pyridin-3-yl)ethyl)cyclopropanecarboxamide]",≤ 300
8,"C[C@@H](NC(=O)[C@H]1C[C@@H]1c1cc2ccccc2[nH]1)c1cnc(OCC(F)(F)F)cn1 (relative stereo) [Example 225, (1S*,2S*)-2-(1H-indol-2-yl)-N-((R)-1-(5-(2,2,2-trifluoroethoxy)pyrazin-2-yl)ethyl)cyclopropanecarboxamide]",≤ 300
9,"C[C@@H](NC(=O)[C@@H]1C[C@H]1c1cc2ccccc2[nH]1)c1cnc(OCC(F)(F)F)cn1 (relative stereo) [Example 226, (1R*,2R*)-2-(1H-indol-2-yl)-N-((R)-1-(5-(2,2,2-trifluoroethoxy)pyrazin-2-yl)ethyl)cyclopropanecarboxamide]",≤ 300
10,"C[C@@H](NC(=O)[C@H]1C[C@@H]1c1ccc2cnn(C)c2c1)c1ccc(OCC(F)(F)F)cn1 (relative stereo) [Example 227, (1S*,2S*)-2-(1-methyl-1H-indazol-6-yl)-N-((R)-1-(5-(2,2,2-trifluoroethoxy)pyridin-2-yl)ethyl)cyclopropanecarboxamide]",≤ 300
11,"C[C@@H](NC(=O)[C@H]1C[C@@H]1c1ccc(OCc2ccccc2)cc1)c1ccc(OCC(F)(F)F)cn1 (relative stereo) [Example 237, (1S*,2S*)-2-(4-(benzyloxy)phenyl)-N-((R)-1-(5-(2,2,2-trifluoroethoxy)pyridin-2-yl)ethyl)cyclopropanecarboxamide]",≤ 300
12,"C[C@@H](NC(=O)[C@H]1C[C@@H]1c1ccc(F)cc1Cl)c1ccc(OCC(F)(F)F)cn1 (relative stereo) [Example 246, (1S*,2S*)-2-(2-chloro-4-fluorophenyl)-N-((R)-1-(5-(2,2,2-trifluoroethoxy)pyridin-2-yl)ethyl)cyclopropanecarboxamide]",≤ 300
